Patent US20250235455A1, “AQUEOUS TICAGRELOR SOLUTIONS, METHOD OF MANUFACTURING AND USES” (HYLORIS DEVELOPMENTS SA, priority 2022, published 2025)

How the values were obtained:
Assay type in all cases: physicochemical
[1] = Solubility of ticagrelor in HPβCD (appearance on shaking platform); details: HPβCD 40% w/w
Description: In a first example two different types of cyclodextrin were used and compared for the solubilization of ticagrelor. An unbuffered stock solution of HPβCD or SBECD was made in water at the target concentrations of 20 w/w %, 25 w/w %, 30 w/w %, 35 w/w % and 40 w/w %. Ticagrelor was added slowly under vortex. Ticagrelor was used at concentrations of 5, 10 or 14 mg/ml in milli Q water. The ticagrelor-cyclodextrin solutions were left on a shaking platform. No sonification or heat was applied.

[2] = pH and osmolality determination in undiluted batches; details: 19 mM phosphate buffer pH 7.5
Source text: From the results obtained in Example 4 it follows that the concentration of excipients may be such that the resulting ticagrelor solution is hypertonic. The osmolality and pH of several batches was checked.

[3] = Bulk hold study, ticagrelor 8 mg/ml in 30% w/w HPβCD, phosphate buffer pH 7.5
Description: To investigate the impact of temperature and hold time, a new composition was prepared as per below Table 19.
In first step a phosphate buffer at pH 7.5 was prepared and the buffered solution was heated to 40° C.-45° C. HPβCD was added to the buffered solution under continuous mixing. […] It usually took 30 mins to 4 hours depending on batch size.
Then this solution was filtered through a 0.22-micron filter and packed in suitable clear or amber colored glass vials

For `CCCSc1nc(N[C@@H]2C[C@H]2c2ccc(F)c(F)c2)c2nnn([C@@H]3C[C@H](OCCO)[C@@H](O)[C@H]3O)c2n1` [Ticagrelor, (1S,2S,3R,5S)-3-{7-[(1R,2S)-2-(3,4-difluorophenyl)cyclopropylamino]5-(propylthio)-3H-(1,2,3)triazolo (4,5-D)pyrimidin-3-yl}-5-(2 hydroxyethoxy)cyclopentane-1,2-diol], which “Appearance After overnight shaking” value ([1]; ticagrelor 10 mg/ml) is on record?
The value was “+ (clear, appeared completely dissolved)”.

What about the “Appearance After 5 min of shaking” value ([1]; ticagrelor 14 mg/ml) of the same compound?
The value was “− (translucent solution with precipitation)”.

What about the “Appearance After 30 min of shaking” value ([1]; ticagrelor 14 mg/ml) of the same compound?
The value was “+/−”.

What about the “Appearance After 60 min of shaking” value ([1]; ticagrelor 14 mg/ml) of the same compound?
Its value is “+/−”.

And the “Appearance After 3 h of shaking” value ([1]; ticagrelor 14 mg/ml)?
Its value is “+/−”.

And the Assay ([2]; HPβCD 22.5% w/w)?
Its Assay is 98.15%.

What about the Osmolality undiluted ([2]; HPβCD 22.5% w/w) of the same compound?
The Osmolality undiluted was 392 mOsm/kg.

And the Total Impurities ([2]; HPβCD 22.5% w/w)?
The Total Impurities was 0.39%.

And the pH undiluted ([2]; HPβCD 22.5% w/w)?
The pH undiluted was 7.67.

What about the Assay ([2]; HPβCD 25.0% w/w) of the same compound?
The Assay was 103.23%.

What about the Osmolality undiluted ([2]; HPβCD 25.0% w/w) of the same compound?
Its Osmolality undiluted is 493 mOsm/kg.

What about the Total Impurities ([2]; HPβCD 25.0% w/w) of the same compound?
Its Total Impurities is 0.41%.

What about the pH undiluted ([2]; HPβCD 25.0% w/w) of the same compound?
The pH undiluted was 7.69.

And the Assay ([2]; HPβCD 27.5% w/w)?
The Assay was 104.27%.

What about the Osmolality undiluted ([2]; HPβCD 27.5% w/w) of the same compound?
Its Osmolality undiluted is 549 mOsm/kg.

What about the Total Impurities ([2]; HPβCD 27.5% w/w) of the same compound?
The Total Impurities was 0.42%.

And the pH undiluted ([2]; HPβCD 27.5% w/w)?
The pH undiluted was 7.69.

What about the Assay ([2]; HPβCD 30.0% w/w) of the same compound?
Its Assay is 107.64%.

And the Osmolality undiluted ([2]; HPβCD 30.0% w/w)?
Its Osmolality undiluted is 638 mOsm/kg.

And the Total Impurities ([2]; HPβCD 30.0% w/w)?
Its Total Impurities is 0.44%.

What about the pH undiluted ([2]; HPβCD 30.0% w/w) of the same compound?
Its pH undiluted is 7.74.

What about the Assay ([2]; HPβCD 32.5% w/w) of the same compound?
Its Assay is 99.26%.

And the Osmolality undiluted ([2]; HPβCD 32.5% w/w)?
The Osmolality undiluted was 813 mOsm/kg.

What about the Total Impurities ([2]; HPβCD 32.5% w/w) of the same compound?
The Total Impurities was 0.41%.

And the pH undiluted ([2]; HPβCD 32.5% w/w)?
Its pH undiluted is 7.68.

And the Acetal impurity ([3]; Bulk hold 45° C., T = 1 h)?
Its Acetal impurity is 0.04%.

And the Amine impurity ([3]; Bulk hold 45° C., T = 1 h)?
Its Amine impurity is 0.05%.

And the “Assay Ticagrelor” value ([3]; Bulk hold 45° C., T = 1 h)?
Its value is 107.87%.

And the “Sum Impurities >0.05” value ([3]; Bulk hold 45° C., T = 1 h)?
Its value is 0.12%.

What about the “Total Impurities” value ([3]; Bulk hold 45° C., T = 1 h) of the same compound?
The value was 0.20%.

What about the Triol impurity ([3]; Bulk hold 45° C., T = 1 h) of the same compound?
Its Triol impurity is 0.04%.

And the “Unnamed impurity, relative retention time 1.33” value ([3]; Bulk hold 45° C., T = 1 h)?
Its value is 0.07%.

And the Acetal impurity ([3]; Bulk hold 45° C., T = 110 h)?
The Acetal impurity was 0.04%.

And the Amine impurity ([3]; Bulk hold 45° C., T = 110 h)?
Its Amine impurity is 0.07%.

What about the “Assay Ticagrelor” value ([3]; Bulk hold 45° C., T = 110 h) of the same compound?
Its value is 109.10%.

And the “Sum Impurities >0.05” value ([3]; Bulk hold 45° C., T = 110 h)?
Its value is 0.11%.

And the “Total Impurities” value ([3]; Bulk hold 45° C., T = 110 h)?
Its value is 0.28%.

What about the Triol impurity ([3]; Bulk hold 45° C., T = 110 h) of the same compound?
Its Triol impurity is 0.05%.

And the “Unnamed impurity, relative retention time 1.33” value ([3]; Bulk hold 45° C., T = 110 h)?
The value was 0.03%.

And the Acetal impurity ([3]; Bulk hold at 30° C., T0)?
The Acetal impurity was 0.04%.

What about the Amine impurity ([3]; Bulk hold at 30° C., T0) of the same compound?
The Amine impurity was 0.06%.

What about the “Assay Ticagrelor” value ([3]; Bulk hold at 30° C., T0) of the same compound?
Its value is 105.60%.

And the Regiomer impurity ([3]; Bulk hold at 30° C., T0)?
The Regiomer impurity was 0.00%.

And the “Sum Impurities >0.05” value ([3]; Bulk hold at 30° C., T0)?
Its value is 0.10%.

What about the “Total Impurities” value ([3]; Bulk hold at 30° C., T0) of the same compound?
Its value is 0.21%.

What about the Triol impurity ([3]; Bulk hold at 30° C., T0) of the same compound?
Its Triol impurity is 0.05%.

What about the Acetal impurity ([3]; Bulk hold at 30° C., T4 W) of the same compound?
Its Acetal impurity is 0.04%.

And the Amine impurity ([3]; Bulk hold at 30° C., T4 W)?
The Amine impurity was 0.06%.

And the “Assay Ticagrelor” value ([3]; Bulk hold at 30° C., T4 W)?
Its value is 106.14%.

And the Regiomer impurity ([3]; Bulk hold at 30° C., T4 W)?
The Regiomer impurity was 0.00%.

What about the “Sum Impurities >0.05” value ([3]; Bulk hold at 30° C., T4 W) of the same compound?
The value was 0.06%.

And the “Total Impurities” value ([3]; Bulk hold at 30° C., T4 W)?
The value was 0.21%.

What about the Triol impurity ([3]; Bulk hold at 30° C., T4 W) of the same compound?
Its Triol impurity is 0.04%.

What about the Acetal impurity ([3]; sealed vials, T = 1 M, 25° C.) of the same compound?
Its Acetal impurity is 0.03%.

And the Amine impurity ([3]; sealed vials, T = 1 M, 25° C.)?
The Amine impurity was 0.06%.

What about the “Assay Ticagrelor” value ([3]; sealed vials, T = 1 M, 25° C.) of the same compound?
The value was 107.22%.

What about the Regiomer impurity ([3]; sealed vials, T = 1 M, 25° C.) of the same compound?
Its Regiomer impurity is 0.03%.

What about the “Sum Impurities >0.05” value ([3]; sealed vials, T = 1 M, 25° C.) of the same compound?
The value was 0.06%.

What about the “Total Impurities” value ([3]; sealed vials, T = 1 M, 25° C.) of the same compound?
Its value is 0.23%.

And the Triol impurity ([3]; sealed vials, T = 1 M, 25° C.)?
Its Triol impurity is 0.01%.

What about the “Unnamed impurity, relative retention time 1.03” value ([3]; sealed vials, T = 1 M, 25° C.) of the same compound?
The value was 0.02%.

What about the “Unnamed impurity, relative retention time 1.33” value ([3]; sealed vials, T = 1 M, 25° C.) of the same compound?
The value was 0.03%.

What about the Acetal impurity ([3]; sealed vials, T = 1 M, 40° C.) of the same compound?
Its Acetal impurity is 0.00%.

What about the Amine impurity ([3]; sealed vials, T = 1 M, 40° C.) of the same compound?
The Amine impurity was 0.06%.

What about the “Assay Ticagrelor” value ([3]; sealed vials, T = 1 M, 40° C.) of the same compound?
The value was 105.16%.

And the Regiomer impurity ([3]; sealed vials, T = 1 M, 40° C.)?
Its Regiomer impurity is 0.08%.

And the “Sum Impurities >0.05” value ([3]; sealed vials, T = 1 M, 40° C.)?
Its value is 0.21%.

What about the “Total Impurities” value ([3]; sealed vials, T = 1 M, 40° C.) of the same compound?
The value was 0.28%.

What about the Triol impurity ([3]; sealed vials, T = 1 M, 40° C.) of the same compound?
Its Triol impurity is 0.00%.

And the “Unnamed impurity, relative retention time 1.03” value ([3]; sealed vials, T = 1 M, 40° C.)?
The value was 0.02%.

What about the “Unnamed impurity, relative retention time 1.33” value ([3]; sealed vials, T = 1 M, 40° C.) of the same compound?
The value was 0.08%.
